From patent US20250214942A1, “INHIBITORS OF RECEPTOR INTERACTING PROTEIN KINASE I FOR THE TREATMENT OF DISEASE” (Board of Regents, The University of Texas System, priority 2019, published 2025)

These molecules were tested on human monocytic cell line U937 (assay: Human U937 cellular necroptosis assay (TNFalpha + z-VAD-FMK, Cell Titer-Glo viability)). Details: Homo sapiens, U-937, 22 h, U937 cells, 25 ng/mL human TNFalpha + 25 μM z-VAD-FMK, read-out: hU937 Avg IC50.
Format: cell-based
Summary of the method: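 Readout is CellTiter-Glo 2.0 luminescence after 22 h at 37° C with compound, in cells triggered by human TNFalpha (25 ng/mL) and z-VAD-FMK (25 μM) in phenol red-free RPMI/10% FBS. Values are run-averaged IC50s from a four-parameter logistic curve.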

SMILES | IC50
N#Cc1nc(C2CC2)n(CC23CC(C(=O)N4N=CCC4c4cc(F)cc(F)c4)(C2)C3)n1 (stereo not shown) [Example 221, 5-cyclopropyl-1-((3-(5-(3,5-difluorophenyl)-4,5-dihydro-1H-pyrazole-1-carbonyl)-bicyclo[1.1.1]pentan-1-yl)-methyl)-1H-1,2,4-triazole-3-carbonitrile] | 992 nM
Cc1ccccc1C1CC=NN1C(=O)C12CC(COc3ccc(C#N)cn3)(C1)C2 (stereo not shown) [Example 314, 6-((3-(5-(o-tolyl)-4,5-dihydro-1H-pyrazole-1-carbonyl)-bicyclo[1.1.1]pentan-1-yl)-methoxy)nicotinonitrile] | 475 nM
Cn1cc(-c2cnc(OCC34CC(C(=O)N5N=CCC5c5cc(F)cc(F)c5)(C3)C4)cn2)cn1 (stereo not shown) [Example 344, (5-(3,5-difluorophenyl)-4,5-dihydro-1H-pyrazol-1-yl)(3-(((5-(1-methyl-1H-pyrazol-4-yl)pyrazin-2-yl)oxy)methyl)-bicyclo[1.1.1]pentan-1-yl)methanone] | 56 nM
Cc1ncc(C2CC=NN2C(=O)C23CC(Cn4ncc5cc(C#N)ccc54)(C2)C3)cc1F (stereo not shown) [Example 246, 1-((3-(5-(5-fluoro-6-methyl-pyridin-3-yl)-4,5-dihydro-1H-pyrazole-1-carbonyl)bicyclo-[1.1.1]pentan-1-yl)methyl)-1H-indazole-5-carbonitrile] | 73 nM
N#Cc1ccc(OCC23CC(C(=O)N4N=CCC4c4cncc(F)c4)(C2)C3)nc1 (stereo not shown) [Example 285, 6-((3-(5-(5-fluoropyridin-3-yl)-4,5-dihydro-1H-pyrazole-1-carbonyl)bicyclo[1.1.1]-pentan-1-yl)methoxy)-nicotinonitrile] | 164 nM
Cc1c(F)cc([C@H]2CC=NN2C(=O)C23CC(COc4ccc(C#N)cn4)(C2)C3)cc1F [Example 266, (R)-6-((3-(5-(3,5-difluoro-4-methylphenyl)-4,5-dihydro-1H-pyrazole-1-carbonyl)-bicyclo[1.1.1]pentan-1-yl)-methoxy)nicotinonitrile] | 1800 nM
CN(CC12CC(C(=O)N3N=CCC3c3cc(F)cc(F)c3)(C1)C2)c1cnc(C#N)cn1 (stereo not shown) [Example 206, 5-(((3-(5-(3,5-Difluorophenyl)-4,5-dihydro-1H-pyrazole-1-carbonyl)bicyclo[1.1.1]pentan-1-yl)methyl)(methyl)amino)pyrazine-2-carbonitrile] | 109 nM
Cc1ccc(C2CC=NN2C(=O)C23CC(Cn4ncc5cc(C#N)ccc54)(C2)C3)cc1F (stereo not shown) [Example 239, 1-((3-(5-(3-fluoro-4-methyl-phenyl)-4,5-dihydro-1H-pyrazole-1-carbonyl)bicyclo-[1.1.1]pentan-1-yl)methyl)-1H-indazole-5-carbonitrile] | 10 nM
Cc1cc(F)c(C2CC=NN2C(=O)C23CC(COc4cnc(-c5cnn(C)c5)cn4)(C2)C3)cc1F (stereo not shown) [Example 345, (5-(2,5-difluoro-4-methylphenyl)-4,5-dihydro-1H-pyrazol-1-yl)(3-(((5-(1-methyl-1H-pyrazol-4-yl)pyrazin-2-yl)oxy)methyl)bicyclo[1.1.1]pentan-1-yl)methanone] | 61 nM
Cn1cc(-c2ccc(OCC34CC(C(=O)N5N=CCC5c5cc(F)cc(F)c5)(C3)C4)c(F)c2)cn1 (stereo not shown) [Example 204, (5-(3,5-Difluorophenyl)-4,5-dihydro-1H-pyrazol-1-yl)(3-((2-fluoro-4-(1-methyl-1H-pyrazol-4-yl)phenoxy)methyl)bicyclo[1.1.1]pentan-1-yl)methanone] | 22 nM
N#Cc1ccc(OCC23CC(C(=O)N4N=CCC4c4cc(F)cc(F)c4)(C2)C3)nn1 (stereo not shown) [Example 323, 6-((3-(5-(3,5-difluorophenyl)-4,5-dihydro-1H-pyrazole-1-carbonyl)bicyclo[1.1.1]pentan-1-yl)methoxy)pyridazine-3-carbonitrile] | 153 nM
N#Cc1ccc(OCC23CC(C(=O)N4N=CCC4c4cccc(C#N)c4)(C2)C3)nc1 (stereo not shown) [Example 281, 6-((3-(5-(3-cyanophenyl)-4,5-dihydro-1H-pyrazole-1-carbonyl)bicyclo[1.1.1]pentan-1-yl)methoxy)nicotinonitrile] | 148 nM
Cc1csc(C2CC=NN2C(=O)C23CC(Cn4ncc5cc(C#N)ccc54)(C2)C3)n1 (stereo not shown) [Example 250, 1-((3-(5-(4-methylthiazol-2-yl)-4,5-dihydro-1H-pyrazole-1-carbonyl)bicyclo[1.1.1]-pentan-1-yl)methyl)-1H-indazole-5-carbonitrile] | 267 nM
C[C@@H](c1c(F)cccc1F)N(C)C(=O)C12CC(COc3cnc(C#N)cn3)(C1)C2 [Example 292, (S)-3-(((5-cyanopyrazin-2-yl)oxy)methyl)-N-(1-(2,6-difluorophenyl)ethyl)-N-methylbicyclo[1.1.1]pentane-1-carboxamide] | 956 nM
COc1cc(C(O)C23CC(C(=O)N4N=CCC4c4cc(F)cc(F)c4)(C2)C3)ncn1 (stereo not shown) [Example 232, (5-(3,5-difluorophenyl)-4,5-dihydro-1H-pyrazol-1-yl)(3-(hydroxy(6-methoxy-pyrimidin-4-yl)methyl)-bicyclo[1.1.1]pentan-1-yl)-methanone] | 8110 nM
Cc1ccc(C2CC=NN2C(=O)C23CC(COc4ccc(C#N)cn4)(C2)C3)cc1F (stereo not shown) [Example 272, 6-((3-(5-(3-fluoro-4-methyl-phenyl)-4,5-dihydro-1H-pyrazole-1-carbonyl)bicyclo-[1.1.1]pentan-1-yl)-methoxy)nicotinonitrile] | 24 nM

SMILES | IC50
N#Cc1ccc2c(cnn2CC23CC(C(=O)N4N=CCC4c4ncccn4)(C2)C3)c1 (stereo not shown) [Example 259, 1-((3-(5-(pyrimidin-2-yl)-4,5-dihydro-1H-pyrazole-1-carbonyl)bicyclo[1.1.1]pentan-1-yl)methyl)-1H-indazole-5-carbonitrile] | 5450 nM
N#Cc1cnc(OCC23CC(C(=O)N4N=CCC4c4c(F)cccc4F)(C2)C3)cn1 (stereo not shown) [Example 307, 5-((3-(5-(2,6-difluorophenyl)-4,5-dihydro-1H-pyrazole-1-carbonyl)bicyclo[1.1.1]pentan-1-yl)methoxy)pyrazine-2-carbonitrile] | 8.7 nM
N#Cc1cnc(OCC23CC(C(=O)N4N=CCC4c4cncc(F)c4)(C2)C3)cn1 (stereo not shown) [Example 277, 5-((3-(5-(5-fluoropyridin-3-yl)-4,5-dihydro-1H-pyrazole-1-carbonyl)bicyclo[1.1.1]-pentan-1-yl)methoxy)pyrazine-2-carbonitrile] | 81 nM
N#Cc1ccc2c(cnn2CC23CC(C(=O)N4N=CCC4c4ccc(F)c(F)c4)(C2)C3)c1 (stereo not shown) [Example 242, 1-((3-(5-(3,4-difluorophenyl)-4,5-dihydro-1H-pyrazole-1-carbonyl)bicyclo[1.1.1]pentan-1-yl)methyl)-1H-indazole-5-carbonitrile] | 20 nM
N#Cc1ccc(OCC23CC(C(=O)N4N=CCC4c4ccccc4)(C2)C3)nc1 (stereo not shown) [Example 276, 6-((3-(5-phenyl-4,5-dihydro-1H-pyrazole-1-carbonyl)-bicyclo[1.1.1]pentan-1-yl)-methoxy)nicotinonitrile] | 76 nM
Cc1cccc(C2CC=NN2C(=O)C23CC(COc4ccc(C#N)cn4)(C2)C3)c1 (stereo not shown) [Example 279, 6-((3-(5-(m-tolyl)-4,5-dihydro-1H-pyrazole-1-carbonyl)-bicyclo[1.1.1]pentan-1-yl)-methoxy)nicotinonitrile] | 104 nM
Cc1cc(C#N)cnc1OCC12CC(C(=O)N3N=CCC3c3cc(F)cc(F)c3)(C1)C2 (stereo not shown) [Example 225, 6-((3-(5-(3,5-difluorophenyl)-4,5-dihydro-1H-pyrazole-1-carbonyl)bicyclo[1.1.1]pentan-1-yl)methoxy)-5-methyl-nicotinonitrile] | 92 nM
N#Cc1ccc(OCC23CC(C(=O)N4N=CCC4c4cc(F)ccc4F)(C2)C3)nc1 (stereo not shown) [Example 308, 6-((3-(5-(2,5-difluorophenyl)-4,5-dihydro-1H-pyrazole-1-carbonyl)bicyclo[1.1.1]pentan-1-yl)methoxy)nicotinonitrile] | 11 nM
Cc1cccc(C2CC=NN2C(=O)C23CC(Cn4ncc5cc(C#N)ccc54)(C2)C3)c1 (stereo not shown) [Example 243, 1-((3-(5-(m-tolyl)-4,5-dihydro-1H-pyrazole-1-carbonyl)-bicyclo[1.1.1]pentan-1-yl)-methyl)-1H-indazole-5-carbonitrile] | 31 nM
N#Cc1ccc(OCC23CC(C(=O)N4N=CCC4c4ncccc4F)(C2)C3)nc1 (stereo not shown) [Example 303, 6-((3-(5-(3-fluoropyridin-2-yl)-4,5-dihydro-1H-pyrazole-1-carbonyl)bicyclo[1.1.1]-pentan-1-yl)methoxy)-nicotinonitrile] | 500 nM
N#Cc1ccc2c(cnn2CC23CC(C(=O)N4N=CCC4c4ccc(F)cc4)(C2)C3)c1 (stereo not shown) [Example 244, 1-((3-(5-(4-fluorophenyl)-4,5-dihydro-1H-pyrazole-1-carbonyl)bicyclo[1.1.1]pentan-1-yl)methyl)-1H-indazole-5-carbonitrile] | 37 nM
N#Cc1cc2cnn(CC34CC(C(=O)N5N=CCC5c5cc(F)cc(F)c5)(C3)C4)c2cc1Cl (stereo not shown) [Example 214, 6-chloro-1-((3-(5-(3,5-difluorophenyl)-4,5-dihydro-1H-pyrazole-1-carbonyl)-bicyclo[1.1.1]pentan-1-yl)-methyl)-1H-indazole-5-carbonitrile] | 71 nM
N#Cc1ccc2c(cnn2CC23CC(C(=O)N4N=CCC4c4cccc(Cl)c4Cl)(C2)C3)c1 (stereo not shown) [Example 245, 1-((3-(5-(2,3-dichlorophenyl)-4,5-dihydro-1H-pyrazole-1-carbonyl)bicyclo[1.1.1]pentan-1-yl)methyl)-1H-indazole-5-carbonitrile] | 43 nM
Cc1c(F)cc(C2CC=NN2C(=O)C23CC(Cn4ncc5cc(C#N)ccc54)(C2)C3)cc1F (stereo not shown) [Example 203, 1-((3-(5-(3,5-Difluoro-4-methylphenyl)-4,5-dihydro-1H-pyrazole-1-carbonyl)bicyclo[1.1.1]pentan-1-yl)methyl)-1H-indazole-5-carbonitrile] | 5.5 nM
N#Cc1cnc(OCC23CC(C(=O)N4N=CCC4c4cc(F)ccc4F)(C2)C3)cn1 (stereo not shown) [Example 268, 5-((3-(5-(2,5-difluorophenyl)-4,5-dihydro-1H-pyrazole-1-carbonyl)bicyclo[1.1.1]pentan-1-yl)methoxy)pyrazine-2-carbonitrile] | 3.9 nM
